ChEMBL document CHEMBL1201862, “PubChem BioAssay data set” (2004)
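Results reflect a 48-hour exposure of cells in 96-well plates to compound at five concentrations. GI50 is the concentration that inhibits growth by half.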 Active and inactive are the calls of the source. Cut-off read from the data, not from the text of the source: active = GI50 up to about 1.1 µM and inactive = higher.

Tests used:
Assay in all cases: DTP human tumour cell line panel, 48 h
[1] = test system: A498
[2] = test system: HL-60
[3] = test system: HOP-62
[4] = test system: KM12
[5] = test system: M14
[6] = test system: MOLT-4
[7] = test system: NCI-H226
[8] = test system: NCI-H460
[9] = test system: RPMI-8226
[10] = test system: SF-539
[11] = test system: SN12C
[12] = test system: SNB-19
[13] = test system: SNB-75
[14] = test system: SW-620
[15] = test system: UACC-62
[16] = test system: UO-31
[17] = test system: SK-MEL-2

Measured: GI50

O=C(O)c1cc2c3ccccc3nc-2c[nH]1
inactive: [1] 10 µM | [2] > 100 µM | [3] > 100 µM | [4] > 100 µM | [5] > 100 µM | [6] > 100 µM | [7] > 100 µM | [8] > 100 µM | [9] > 100 µM | [10] > 100 µM | [11] > 100 µM | [12] > 100 µM | [13] > 100 µM | [14] > 100 µM | [15] > 100 µM | [16] > 100 µM

O=C1OC(=O)C2C1C1C(c3ccccc3)=C(c3ccccc3)C2(O)C2C(=O)OC(=O)C12 (stereo not given)
inactive: [1] > 100 µM | [2] > 10 µM | [3] > 100 µM | [4] > 100 µM | [5] > 100 µM | [6] 32.5 µM | [7] > 100 µM | [8] > 100 µM | [9] 38.6 µM | [17] > 100 µM | [11] 96.2 µM | [12] > 100 µM | [13] 27.9 µM | [14] 80.7 µM | [15] > 100 µM | [16] > 100 µM

CCOC(=O)/C(C(=O)c1ccccc1)=C1/NCCN1C
inactive: [2] > 100 µM | [3] > 100 µM | [4] > 100 µM | [5] > 100 µM | [6] > 100 µM | [7] > 100 µM | [8] > 100 µM | [9] > 100 µM | [10] 10 µM | [17] > 100 µM | [11] > 100 µM | [12] > 100 µM | [14] > 100 µM | [15] > 100 µM | [16] > 100 µM

Cc1nc2nn(C)cc2c(=O)n1/N=C/c1ccccc1
inactive: [1] > 100 µM | [2] > 100 µM | [3] > 100 µM | [4] > 100 µM | [6] > 100 µM | [7] > 100 µM | [8] > 100 µM | [9] > 100 µM | [10] > 100 µM | [17] > 100 µM | [11] > 100 µM | [12] > 100 µM | [13] > 100 µM | [14] > 100 µM | [15] > 100 µM | [16] > 100 µM

CC1=C(c2ccccc2)C(c2ccccc2)=C(c2ccccc2)C2(c3ccccc3)C(=O)C(C)CN12 (stereo not given)
inactive: [1] > 100 µM | [3] > 100 µM | [4] 43.1 µM | [5] 51.6 µM | [6] 16.6 µM | [7] 21 µM | [8] 32.7 µM | [9] 29.2 µM | [10] 31.5 µM | [17] 95.7 µM | [11] 41.7 µM | [12] 26.5 µM | [13] 19.4 µM | [14] 79.1 µM | [15] 10.3 µM | [16] > 100 µM

Cc1c(C)n(COCCO)c2ncnc(N)c12
inactive: [1] > 100 µM | [2] > 100 µM | [4] > 100 µM | [5] > 100 µM | [6] > 100 µM | [7] > 100 µM | [8] > 100 µM | [9] > 100 µM | [10] > 100 µM | [17] > 100 µM | [11] > 100 µM | [12] > 100 µM | [13] > 100 µM | [14] > 100 µM | [16] > 100 µM

O=C1C=CC(=O)c2c1ccc1c3ccccc3n(-c3ccccn3)c21
inactive: [2] 3.5 µM | [4] > 100 µM | [5] 27.5 µM | [6] 4.8 µM | [7] 13.2 µM | [8] > 100 µM | [9] 25.6 µM | [10] 32 µM | [17] 45.4 µM | [11] 55.1 µM | [13] > 100 µM | [16] 19.1 µM

CN(C)c1ccc(/C=N\N2C(=O)c3ccccc3C2=O)cc1
inactive: [1] > 100 µM | [2] > 100 µM | [3] > 100 µM | [4] > 100 µM | [5] > 100 µM | [6] > 100 µM | [7] > 100 µM | [8] > 100 µM | [9] > 100 µM | [10] > 100 µM | [17] > 100 µM | [11] > 100 µM | [12] > 100 µM | [13] 40.9 µM | [14] > 100 µM | [15] > 100 µM | [16] > 100 µM

COC(=O)CCC(=O)CC(=O)C(=O)Nc1ccc(F)cc1
inactive: [1] > 100 µM | [3] > 100 µM | [4] > 100 µM | [5] > 100 µM | [6] > 100 µM | [7] > 100 µM | [8] > 100 µM | [9] > 100 µM | [10] > 100 µM | [17] > 100 µM | [11] > 100 µM | [12] > 100 µM | [13] > 100 µM | [14] > 100 µM | [15] > 100 µM | [16] > 100 µM

COc1ccc2c(CCNC(=O)/C=C/c3ccccc3)c(C(C)=O)[nH]c2c1[N+](=O)[O-]
inactive: [1] 17.3 µM | [2] 4.31 µM | [3] 18.8 µM | [4] 7.73 µM | [5] 7.33 µM | [6] 5.69 µM | [7] 20.9 µM | [8] 6.12 µM | [9] 5.98 µM | [10] 9.86 µM | [17] 17.4 µM | [11] 42.4 µM | [12] 48.6 µM | [14] 5.38 µM | [15] 10.2 µM | [16] 31.3 µM

COC(=O)C1=C(C(=O)OC)C2(C(=O)OC)OC1(OC)C(C1(C(=O)OC)C(C(=O)OC)=C1C(=O)OC)=C2C(=O)OC (stereo not given)
inactive: [2] > 100 µM | [3] > 100 µM | [4] > 100 µM | [5] > 100 µM | [6] > 100 µM | [7] > 100 µM | [8] > 100 µM | [9] > 100 µM | [10] > 100 µM | [17] > 100 µM | [11] > 100 µM | [12] > 100 µM | [13] > 100 µM | [14] > 100 µM | [15] > 100 µM | [16] > 100 µM

O=S1(=O)NN=C(NCc2ccc(Cl)cc2)c2ccccc21
inactive: [1] > 100 µM | [2] > 100 µM | [4] > 100 µM | [5] 74 µM | [6] 22.8 µM | [7] > 100 µM | [8] > 100 µM | [9] 30.6 µM | [10] > 100 µM | [17] > 100 µM | [11] > 100 µM | [12] > 100 µM | [14] > 100 µM | [15] 83.6 µM | [16] > 100 µM

C=CC1=CSNN1
inactive: [1] > 100 µM | [2] > 100 µM | [3] > 100 µM | [4] > 100 µM | [5] > 100 µM | [6] > 100 µM | [8] > 100 µM | [9] > 100 µM | [10] > 100 µM | [17] > 100 µM | [11] > 100 µM | [12] > 100 µM | [13] > 100 µM | [14] > 100 µM | [15] > 100 µM | [16] > 100 µM

COC(=O)C1=Cc2cn(S(=O)(=O)c3ccc(C)cc3)c3cccc(c23)C(C=C(C)C)N1C(C)=O (stereo not given)
inactive: [1] 68.9 µM | [2] 5.56 µM | [3] > 100 µM | [4] > 100 µM | [5] 30.2 µM | [6] 3.1 µM | [7] > 100 µM | [10] > 100 µM | [17] 4.68 µM | [11] 14.1 µM | [12] 49 µM | [13] 98.6 µM | [14] 32.7 µM | [15] 47.4 µM | [16] 26.1 µM

CC(C)(C)OC(=O)NCCc1cccc2c1oc1c(CCC(=O)O)cccc12
inactive: [1] > 100 µM | [2] > 100 µM | [4] > 100 µM | [5] > 100 µM | [6] > 100 µM | [7] > 100 µM | [8] > 100 µM | [9] > 100 µM | [10] > 100 µM | [17] > 100 µM | [11] > 100 µM | [12] > 100 µM | [13] 95.9 µM | [14] > 100 µM | [15] > 100 µM | [16] > 100 µM

O=C(O)CN(c1ccc(F)cc1)S(=O)(=O)c1ccccc1
inactive: [1] > 100 µM | [2] > 100 µM | [4] > 100 µM | [5] > 100 µM | [6] > 100 µM | [7] > 100 µM | [8] > 100 µM | [9] > 100 µM | [10] > 100 µM | [17] > 100 µM | [11] > 100 µM | [12] > 100 µM | [13] > 100 µM | [14] > 100 µM | [15] > 100 µM | [16] > 100 µM

O=C1c2ccccc2C(=O)c2c(O)c(O)cc(O)c21 [PURPURIN]
inactive: [1] 31 µM | [2] 24 µM | [3] 23.7 µM | [4] 41.5 µM | [5] 41.3 µM | [6] 34 µM | [8] 34.5 µM | [9] 25.8 µM | [10] 17.8 µM | [17] 21.2 µM | [11] 34.7 µM | [12] 34.1 µM | [13] 85.9 µM | [14] 40.1 µM | [15] 26.1 µM | [16] 19 µM
